Columns and labels:
[1] = target: von Hippel-Lindau disease tumor suppressor/Apoptosis regulator Bcl-2 (Homo sapiens, UniProt P10415+P40337); assay: Protac activity at VHL/BCL-2 in human HEK293T cells assessed as protein degradation; type: cell-based
[2] = target: von Hippel-Lindau disease tumor suppressor/Bcl-2-like protein 1 (Homo sapiens, UniProt Q07817+P40337); assay: Protac activity at VHL/BCL-xL in human HEK293T cells assessed as protein degradation; type: cell-based
[3] = target: BRD4/E3 ubiquitin-protein ligase Mdm2 (Homo sapiens) (UniProt Q00987+O60885); assay: Protac activity at MDM2/BRD4 in human HCT-116 cells assessed as induction of protein degradation by measuring maximal efficacy relative to control; type: cell-based
[4] = target: T1, von Hippel-Lindau disease tumor suppressor/SWI/SNF-related matrix-associated actin-dependent regulator of chromatin subfamily A member 2 (Homo sapiens, UniProt P51531+P40337); assay: Protac activity at VHL/SMARCA2 in human RKO cells assessed as protein degradation incubated for 18 hrs by capillary electrophoresis analysis; type: cell-based
Target sequence in this assay (P51531 whole entry): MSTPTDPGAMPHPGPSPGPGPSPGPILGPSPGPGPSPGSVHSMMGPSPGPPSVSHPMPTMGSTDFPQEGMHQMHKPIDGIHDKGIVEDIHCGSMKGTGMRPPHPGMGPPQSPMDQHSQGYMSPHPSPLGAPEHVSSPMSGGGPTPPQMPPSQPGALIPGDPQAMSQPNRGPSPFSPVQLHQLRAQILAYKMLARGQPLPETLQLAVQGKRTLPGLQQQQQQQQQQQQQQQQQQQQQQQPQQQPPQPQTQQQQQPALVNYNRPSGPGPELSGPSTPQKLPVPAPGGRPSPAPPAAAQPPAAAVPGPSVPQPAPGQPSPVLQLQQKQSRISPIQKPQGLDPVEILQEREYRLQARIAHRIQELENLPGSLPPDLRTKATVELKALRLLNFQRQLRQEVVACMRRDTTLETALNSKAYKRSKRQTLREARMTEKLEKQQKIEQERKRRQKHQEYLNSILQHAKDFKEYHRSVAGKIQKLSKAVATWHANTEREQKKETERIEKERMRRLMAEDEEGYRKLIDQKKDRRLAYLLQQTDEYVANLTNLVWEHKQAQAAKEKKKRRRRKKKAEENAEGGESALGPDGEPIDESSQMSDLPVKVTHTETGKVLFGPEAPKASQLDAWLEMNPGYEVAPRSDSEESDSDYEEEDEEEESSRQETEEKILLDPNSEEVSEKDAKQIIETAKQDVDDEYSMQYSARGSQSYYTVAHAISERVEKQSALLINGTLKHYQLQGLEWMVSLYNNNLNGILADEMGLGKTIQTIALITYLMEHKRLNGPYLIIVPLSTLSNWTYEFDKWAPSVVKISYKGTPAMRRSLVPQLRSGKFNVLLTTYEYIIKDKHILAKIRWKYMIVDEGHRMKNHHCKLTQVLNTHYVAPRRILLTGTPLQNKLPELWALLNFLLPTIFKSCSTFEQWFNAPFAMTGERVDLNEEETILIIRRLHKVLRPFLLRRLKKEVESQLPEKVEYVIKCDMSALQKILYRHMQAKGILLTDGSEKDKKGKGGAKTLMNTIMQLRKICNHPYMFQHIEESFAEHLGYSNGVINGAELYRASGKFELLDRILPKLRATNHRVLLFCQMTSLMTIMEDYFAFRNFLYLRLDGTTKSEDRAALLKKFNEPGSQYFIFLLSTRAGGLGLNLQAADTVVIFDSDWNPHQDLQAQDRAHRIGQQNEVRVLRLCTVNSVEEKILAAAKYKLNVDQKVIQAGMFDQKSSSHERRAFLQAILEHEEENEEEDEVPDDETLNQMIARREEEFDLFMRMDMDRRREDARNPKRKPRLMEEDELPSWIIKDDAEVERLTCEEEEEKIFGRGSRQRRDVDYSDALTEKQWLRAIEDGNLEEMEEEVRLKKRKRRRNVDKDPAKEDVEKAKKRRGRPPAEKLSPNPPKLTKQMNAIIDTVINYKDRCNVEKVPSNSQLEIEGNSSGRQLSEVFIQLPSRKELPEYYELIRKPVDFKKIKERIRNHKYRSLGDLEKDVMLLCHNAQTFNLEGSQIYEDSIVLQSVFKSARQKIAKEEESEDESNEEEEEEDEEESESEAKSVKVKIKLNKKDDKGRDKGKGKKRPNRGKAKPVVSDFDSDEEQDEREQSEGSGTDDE
Target sequence in this assay (P40337 whole entry): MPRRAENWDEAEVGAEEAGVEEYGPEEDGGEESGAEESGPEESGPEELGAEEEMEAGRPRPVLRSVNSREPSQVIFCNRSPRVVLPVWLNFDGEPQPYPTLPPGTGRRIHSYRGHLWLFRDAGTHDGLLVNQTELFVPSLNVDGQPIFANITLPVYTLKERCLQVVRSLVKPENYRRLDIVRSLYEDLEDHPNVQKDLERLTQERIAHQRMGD

[5] = Oral bioavailability in mouse at 30 mg/kg; type: ADME, organism-based; conditions: in vivo
[6] = target: von Hippel-Lindau disease tumor suppressor/ALK tyrosine kinase receptor (Homo sapiens, UniProt Q9UM73+P40337); assay: Protac activity at VHL/ALK in human SR cells assessed as protein degradation
[7] = target: T2, von Hippel-Lindau disease tumor suppressor/Fibroblast growth factor receptor 1 (Homo sapiens, UniProt P11362+P40337); assay: Protac activity at VHL/FGFR1 in human CC-LP-1 cells assessed as protein degradation; type: cell-based
[8] = target: T2, von Hippel-Lindau disease tumor suppressor/Fibroblast growth factor receptor 1; assay: Protac activity at VHL/FGFR1 in human CC-LP-1 cells assessed as protein degradation by measuring maximal efficacy relative to control; type: cell-based
[9] = target: T3, Protein fem-1 homolog B/Bromodomain-containing protein 4 (Homo sapiens, UniProt O60885+Q9UK73); assay: Protac activity at FEM1B/BRD4 in HEK293T cells assessed as degradation of BRD4; type: cell-based
[10] = target: T3, Protein fem-1 homolog B/Bromodomain-containing protein 4; assay: Protac activity at FEM1B/BRD4 in HEK293T cells assessed as induction of protein degradation by measuring maximal efficacy relative to control; type: cell-based
[11] = target: T1, von Hippel-Lindau disease tumor suppressor/SWI/SNF-related matrix-associated actin-dependent regulator of chromatin subfamily A member 2; assay: Protac activity at VHL/SMARCA2 in human RKO cells assessed as induction of protein degradation by measuring maximal efficacy incubated for 18 hrs by capillary electrophoresis analysis relative to control; type: cell-based
[12] = target: von Hippel-Lindau disease tumor suppressor/Leucine-rich repeat serine/threonine-protein kinase 2 (Mus musculus, UniProt Q5S006+P40338); assay: Protac activity at VHL/wild type LRRK2 in mouse MEF cells assessed as protein degradation after 4 hrs by Western blot analysis; type: cell-based
[13] = target: von Hippel-Lindau disease tumor suppressor/Leucine-rich repeat serine/threonine-protein kinase 2 (Mus musculus, UniProt Q5S006+P40338, G2019S); assay: Protac activity at VHL/LRRK2 G2019S mutant in mouse MEF cells assessed as protein degradation after 4 hrs by Western blot analysis; type: cell-based
[14] = Oral bioavailability in C57BL/6 mouse at 30 mg/kg; type: ADME, organism-based; conditions: in vivo
[15] = target: T4, von Hippel-Lindau disease tumor suppressor/Leucine-rich repeat serine/threonine-protein kinase 2 (Mus musculus) (UniProt Q5S006+P40338); assay: Protac activity at VHL/wild type LRRK2 in mouse MEF cells assessed as induction of protein degradation by measuring maximal efficacy after 4 hrs by Western blot analysis relative to control; type: cell-based
[16] = tested on: von Hippel-Lindau disease tumor suppressor/Leucine-rich repeat serine/threonine-protein kinase 2 (Mus musculus), Q5S006+P40338 [G2019S]; assay: Protac activity at VHL/LRRK2 G2019S mutant in mouse MEF cells assessed as induction of protein degradation by measuring maximal efficacy after 4 hrs by Western blot analysis relative to control; type: cell-based
[17] = tested on: von Hippel-Lindau disease tumor suppressor/Leucine-rich repeat serine/threonine-protein kinase 2 (Mus musculus), Q5S006+P40338 [G2019S]; assay: Protac activity at VHL/LRRK2 G2019S mutant in mouse MEF cells assessed as protein degradation at 1 uM after 4 hrs by Western blot analysis relative to control; type: cell-based
[18] = tested on: von Hippel-Lindau disease tumor suppressor/Leucine-rich repeat serine/threonine-protein kinase 2 (Mus musculus), Q5S006+P40338 [G2019S]; assay: Protac activity at VHL/LRRK2 G2019S mutant in mouse MEF cells assessed as protein degradation at 33 nM after 4 hrs by Western blot analysis relative to control; type: cell-based
[19] = target: T4, von Hippel-Lindau disease tumor suppressor/Leucine-rich repeat serine/threonine-protein kinase 2 (Mus musculus); assay: Protac activity at VHL/wild type LRRK2 in mouse MEF cells assessed as protein degradation at 33 nM after 4 hrs by Western blot analysis relative to control; type: cell-based
[20] = Cmax in C57BL/6 mouse at 30 mg/kg, ip; type: ADME, organism-based; design: dose 30 mg/kg, route ip; conditions: in vivo
[21] = Cmax in C57BL/6 mouse at 30 mg/kg, po; type: ADME, organism-based; design: dose 30 mg/kg, route po; conditions: in vivo
[22] = Tmax in C57BL/6 mouse at 30 mg/kg, ip; type: ADME, organism-based; conditions: in vivo
[23] = Tmax in C57BL/6 mouse at 30 mg/kg, po; type: ADME, organism-based; conditions: in vivo
[24] = target: T1, von Hippel-Lindau disease tumor suppressor/SWI/SNF-related matrix-associated actin-dependent regulator of chromatin subfamily A member 2; assay: Protac activity at VHL/SMARCA2 in human NCI-H1568 cells assessed as protein degradation; type: cell-based
Target sequence in this assay (P51531 whole entry): as the sequence (P51531 whole entry) above
Target sequence in this assay (P40337 whole entry): as the sequence (P40337 whole entry) above

[25] = target: T5, Protein polybromo-1/von Hippel-Lindau disease tumor suppressor (Homo sapiens, UniProt Q86U86+P40337); assay: Protac activity at VHL/PBRM1 in human MV4-11 cells assessed as protein degradation; type: cell-based
[26] = target: T5, Protein polybromo-1/von Hippel-Lindau disease tumor suppressor; assay: Protac activity at VHL/PBRM1 in human NCI-H1568 cells assessed as protein degradation; type: cell-based
[27] = target: E3 ubiquitin-protein ligase XIAP/Tyrosine-protein kinase BTK (Homo sapiens, UniProt P98170+Q06187); assay: Protac activity at IAP/BTK in human THP-1 cells assessed as protein degradation; type: cell-based
[28] = target: T6, Protein cereblon/Bromodomain-containing protein 4 (Homo sapiens, UniProt O60885+Q96SW2); assay: Protac activity at CRBN/BRD4 in human 22Rv1 cells assessed as degradation of BRD4; type: cell-based
[29] = target: Protein cereblon/Tyrosine-protein kinase BTK (Homo sapiens) (UniProt Q06187+Q96SW2); assay: Protac activity at CRBN/BTK in human NAMALVA cells assessed as protein degradation by measuring maximal efficacy after 24 hrs by Western blot analysis relative to control; type: cell-based
[30] = target: T7, Protein cereblon/Myc proto-oncogene protein (Homo sapiens, UniProt P01106+Q96SW2); assay: PROTAC activity at MYC/CRBN in human HCT-116 cells assessed as degradation; type: cell-based
[31] = target: T7, Protein cereblon/Myc proto-oncogene protein; assay: PROTAC activity at MYC/CRBN in human PSN1 cells assessed as degradation; type: cell-based
[32] = target: T6, Protein cereblon/Bromodomain-containing protein 4; assay: Protac activity at CRBN/BRD4 in HEK293T cells assessed as protein degradation by immunoblot analysis; type: cell-based
[33] = target: T6, Protein cereblon/Bromodomain-containing protein 4; assay: Protac activity at CRBN/BRD4 in HEK293 cells assessed as protein degradation by measuring maximal efficacy relative to control; type: cell-based

T6 sequence (Q96SW2 whole entry, looked up, other chains not shown): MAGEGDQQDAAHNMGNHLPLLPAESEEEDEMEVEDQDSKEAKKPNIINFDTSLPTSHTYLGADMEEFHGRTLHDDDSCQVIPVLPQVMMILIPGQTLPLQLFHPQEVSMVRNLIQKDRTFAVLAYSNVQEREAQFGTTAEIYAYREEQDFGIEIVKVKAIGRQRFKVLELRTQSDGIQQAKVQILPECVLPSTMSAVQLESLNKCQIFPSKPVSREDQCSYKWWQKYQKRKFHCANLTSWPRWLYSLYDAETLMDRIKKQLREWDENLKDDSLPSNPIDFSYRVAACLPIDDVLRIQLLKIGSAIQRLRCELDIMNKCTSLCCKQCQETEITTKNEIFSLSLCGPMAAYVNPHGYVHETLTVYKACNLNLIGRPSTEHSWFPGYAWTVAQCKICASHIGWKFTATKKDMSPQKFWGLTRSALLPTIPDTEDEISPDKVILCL
T4 sequence (P40338 whole entry, looked up): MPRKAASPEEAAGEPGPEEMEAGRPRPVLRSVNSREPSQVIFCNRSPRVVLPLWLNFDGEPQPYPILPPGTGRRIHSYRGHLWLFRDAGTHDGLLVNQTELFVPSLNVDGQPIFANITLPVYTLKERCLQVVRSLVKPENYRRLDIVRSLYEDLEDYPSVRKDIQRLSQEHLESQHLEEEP
T4 sequence (Q5S006 whole entry, looked up): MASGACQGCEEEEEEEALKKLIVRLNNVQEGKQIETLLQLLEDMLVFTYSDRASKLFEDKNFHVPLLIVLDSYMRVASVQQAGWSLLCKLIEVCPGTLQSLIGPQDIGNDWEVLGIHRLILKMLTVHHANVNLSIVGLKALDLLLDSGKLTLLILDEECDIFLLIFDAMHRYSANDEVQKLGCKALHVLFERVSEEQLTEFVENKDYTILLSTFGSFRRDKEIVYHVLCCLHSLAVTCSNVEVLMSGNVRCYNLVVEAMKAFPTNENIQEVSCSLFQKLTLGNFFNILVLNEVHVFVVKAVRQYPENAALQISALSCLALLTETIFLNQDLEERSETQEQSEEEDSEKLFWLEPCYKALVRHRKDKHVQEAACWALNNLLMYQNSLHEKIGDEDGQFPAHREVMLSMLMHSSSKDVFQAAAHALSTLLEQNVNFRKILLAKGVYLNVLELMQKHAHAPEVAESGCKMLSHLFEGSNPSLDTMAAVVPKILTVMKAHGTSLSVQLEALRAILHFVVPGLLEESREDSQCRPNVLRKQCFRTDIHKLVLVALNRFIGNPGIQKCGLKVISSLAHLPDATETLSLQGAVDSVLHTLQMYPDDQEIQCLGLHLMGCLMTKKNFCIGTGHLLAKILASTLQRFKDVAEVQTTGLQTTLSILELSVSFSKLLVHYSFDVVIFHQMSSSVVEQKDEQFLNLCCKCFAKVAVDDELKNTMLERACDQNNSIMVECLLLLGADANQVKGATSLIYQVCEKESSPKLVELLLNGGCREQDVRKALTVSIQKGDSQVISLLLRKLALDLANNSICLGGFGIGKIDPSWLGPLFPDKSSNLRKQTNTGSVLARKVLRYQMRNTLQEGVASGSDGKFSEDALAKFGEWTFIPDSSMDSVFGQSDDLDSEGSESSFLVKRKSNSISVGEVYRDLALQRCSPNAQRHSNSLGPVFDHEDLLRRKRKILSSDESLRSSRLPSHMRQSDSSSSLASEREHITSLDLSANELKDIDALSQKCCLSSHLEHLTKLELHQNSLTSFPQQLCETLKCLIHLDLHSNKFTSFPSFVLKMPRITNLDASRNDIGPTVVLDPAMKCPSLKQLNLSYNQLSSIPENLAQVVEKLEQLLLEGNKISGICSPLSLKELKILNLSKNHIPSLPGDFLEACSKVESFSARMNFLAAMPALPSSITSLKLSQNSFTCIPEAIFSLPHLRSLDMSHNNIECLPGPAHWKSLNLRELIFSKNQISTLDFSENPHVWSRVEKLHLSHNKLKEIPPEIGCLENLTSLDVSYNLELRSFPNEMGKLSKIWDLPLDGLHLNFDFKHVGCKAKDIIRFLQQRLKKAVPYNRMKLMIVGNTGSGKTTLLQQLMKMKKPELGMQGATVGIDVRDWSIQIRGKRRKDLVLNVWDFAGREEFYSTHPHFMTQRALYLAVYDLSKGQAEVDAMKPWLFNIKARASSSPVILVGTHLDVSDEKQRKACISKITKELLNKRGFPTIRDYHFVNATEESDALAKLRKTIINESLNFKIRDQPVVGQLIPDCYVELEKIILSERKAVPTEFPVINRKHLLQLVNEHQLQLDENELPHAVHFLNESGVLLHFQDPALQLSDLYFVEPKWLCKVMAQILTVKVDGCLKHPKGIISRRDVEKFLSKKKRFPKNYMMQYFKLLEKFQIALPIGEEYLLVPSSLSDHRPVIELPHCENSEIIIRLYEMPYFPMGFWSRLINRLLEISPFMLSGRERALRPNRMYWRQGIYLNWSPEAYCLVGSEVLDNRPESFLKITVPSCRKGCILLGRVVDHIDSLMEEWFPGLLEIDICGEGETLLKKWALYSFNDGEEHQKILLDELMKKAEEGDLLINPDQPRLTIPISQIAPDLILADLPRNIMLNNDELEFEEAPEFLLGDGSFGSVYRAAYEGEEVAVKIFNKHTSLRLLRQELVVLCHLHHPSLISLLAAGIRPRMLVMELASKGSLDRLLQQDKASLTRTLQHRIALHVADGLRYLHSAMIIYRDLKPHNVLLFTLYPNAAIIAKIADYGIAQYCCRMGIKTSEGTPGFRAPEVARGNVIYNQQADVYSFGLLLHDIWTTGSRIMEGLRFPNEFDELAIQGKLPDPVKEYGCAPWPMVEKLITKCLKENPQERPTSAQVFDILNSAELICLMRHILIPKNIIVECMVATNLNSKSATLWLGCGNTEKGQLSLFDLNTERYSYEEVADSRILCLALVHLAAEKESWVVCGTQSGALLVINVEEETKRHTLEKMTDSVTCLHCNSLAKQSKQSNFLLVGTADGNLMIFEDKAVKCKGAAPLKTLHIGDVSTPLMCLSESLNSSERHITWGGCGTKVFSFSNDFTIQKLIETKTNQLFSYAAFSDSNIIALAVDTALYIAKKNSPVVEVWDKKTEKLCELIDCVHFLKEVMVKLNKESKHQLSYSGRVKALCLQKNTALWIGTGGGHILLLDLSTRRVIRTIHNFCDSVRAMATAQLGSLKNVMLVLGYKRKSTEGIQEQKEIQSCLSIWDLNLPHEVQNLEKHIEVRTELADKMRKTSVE

SMILES: Cc1ncsc1-c1ccc([C@H](C)NC(=O)[C@@H]2C[C@@H](O)CN2C(=O)[C@@H](NC(=O)CCCCCCC(=O)N2CCN(C[C@]3(C)CCC(c4ccc(Cl)cc4)=C(CN4CCN(c5ccc(C(=O)NS(=O)(=O)c6ccc(N[C@H](CCN7CCOCC7)CSc7ccccc7)c(S(=O)(=O)C(F)(F)F)c6)cc5)CC4)C3)CC2)C(C)(C)C)cc1
- DC50 [1]: 48 nM
- DC50 [2]: 6 nM

SMILES: COc1cc(C(=O)NCCOCCOCCOCCNC(=O)C[C@@H]2N=C(c3ccc(Cl)cc3)c3c(sc(C)c3C)-n3c(C)nnc32)ccc1NC(=O)[C@@H]1N[C@@H](CC(C)(C)C)[C@](C#N)(c2ccc(Cl)cc2F)[C@H]1c1cccc(Cl)c1F
- Emax [3]: 98%

SMILES: Cc1ncsc1-c1ccc([C@H](CCCCCN2CCC(c3ccc4c(c3)n(C3CCCC3)c3nc(=O)c5c(Br)cccc5n43)CC2)NC(=O)C2C[C@@H](O)CN2C(=O)[C@@H](NC(=O)C2(F)CC2)C(C)(C)C)cc1 (some centres not stated)
- DC50 [4]: 32 nM
- bioavailability [5]: 3%

SMILES: COc1cc(N2CCC(N3CCN(C(=O)CCCCCCCCC(=O)N[C@H](C(=O)N4C[C@H](O)C[C@H]4C(=O)NCc4ccc(-c5scnc5C)cc4)C(C)(C)C)CC3)CC2)ccc1Nc1ncc(Cl)c(Nc2ccccc2P(C)(C)=O)n1
- DC50 [6]: 7.5 nM

SMILES: COc1cc(OC)c(Cl)c(NC(=O)N(C)c2cc(Nc3ccc(N4CCN(CC(=O)N[C@H](C(=O)N5C[C@H](O)C[C@H]5C(=O)N[C@@H](C)c5ccc(-c6scnc6C)cc5)C(C)(C)C)CC4)cc3)ncn2)c1Cl
- DC50 [7]: 4.35 nM
- Emax [8]: 85%

SMILES: Cc1sc2c(c1C)C(c1ccc(Cl)cc1)=N[C@@H](CC(=O)NCCCCNC(=O)CN1CCOc3cc(N(CCC#N)C(=O)CCl)ccc31)c1nnc(C)n1-2
- DC50 [9]: 250 nM
- Emax [10]: 94%

SMILES: Cc1ncsc1-c1ccc([C@H](CC[C@H](C)CCN2CCC(c3ccc4c(c3)n(C3CCCC3)c3nc(=O)c5c(Br)cccc5n43)CC2)NC(=O)C2C[C@@H](O)CN2C(=O)[C@@H](NC(=O)C2(F)CC2)C(C)(C)C)cc1 (some centres not stated)
- DC50 [4]: 1 nM
- bioavailability [5]: 22%

SMILES: Cc1ncsc1-c1ccc(OCCCN2CCC(c3ccc4c(c3)n(C3CCCC3)c3nc(=O)c5c(Br)cccc5n43)CC2)c(CNC(=O)[C@@H]2C[C@@H](O)CN2C(=O)[C@@H](NC(=O)C2(F)CC2)C(C)(C)C)c1
- DC50 [4]: 78 nM
- Emax [11]: 46%

SMILES: CNc1nc(Nc2ccc(C(=O)N3CCN(C[C@H]4CC[C@H](CSC(C)(C)[C@H](NC(=O)C5(F)CC5)C(=O)N5C[C@H](O)C[C@@H]5C(=O)NCc5ccc(-c6scnc6C)cc5)CC4)CC3)cc2OC)ncc1Cl
- DC50 [12]: 32 nM
- DC50 [13]: 14 nM
- bioavailability [14]: 15%
- Emax [15]: 82%
- Emax [16]: 90%
- Activity [17]: 30%
- Activity [18]: 50%
- Activity [19]: 20%
- Cmax [20]: 7700 ng/mL
- Cmax [21]: 3620 ng/mL
- Tmax [22]: 0.25 h
- Tmax [23]: 2 h

SMILES: Cc1ncsc1-c1ccc(CNC(=O)[C@@H]2C[C@@H](O)CN2C(=O)[C@@H](NC(=O)C2(F)CC2)C(C)(C)C)c(OCCOc2ccc(CN3CCN(c4cc(-c5ccccc5O)nnc4N)CC3)cc2)c1
- DC50 [24]: 3.3 nM
- DC50 [25]: 32 nM
- DC50 [26]: 15.6 nM

SMILES: CN[C@@H](C)C(=O)N[C@H](C(=O)N1CCC[C@H]1c1nc(C(=O)c2ccc(F)cc2)cs1)C1CCN(CCCC(=O)N2CCC[C@@H](n3nc(-c4ccc(Oc5ccc(F)cc5F)cc4)c(C(N)=O)c3N)C2)CC1
- DC50 [27]: 4700 nM

SMILES: Cc1sc2c(c1C)C(c1ccc(Cl)cc1)=N[C@H](CC(=O)Nc1cccc(OCCOCCOCCNc3cccc4nnn(C5CCC(=O)NC5=O)c(=O)c34)c1)c1nnc(C)n1-2 (some centres not stated)
- DC50 [28]: 0.32 nM

SMILES: CNc1nc(Nc2ccc(C(=O)N3CCN(CCCOc4cc(-c5scnc5C)ccc4CNC(=O)[C@H]4C[C@@H](O)CN4C(=O)[C@@H](NC(=O)C4(F)CC4)C(C)(C)C)CC3)cc2OC)ncc1Cl
- Activity [18]: 60%

SMILES: Nc1ncnc2c1c(-c1ccc(Oc3ccccc3)cc1)nn2C1CCN(CCOCCOCC(=O)Nc2ccc3c(c2)C(=O)N(C2CCC(=O)NC2=O)C3=O)CC1 (configuration not stated)
- Emax [29]: 99%

SMILES: CC(C)c1ccc(/C=C2\SC(=O)N(CCCCCCCCNC(=O)c3ccc4c(c3)C(=O)N(C3CCC(=O)NC3=O)C4=O)C2=O)cc1 (configuration not stated)
- DC50 [30]: 5000 nM
- DC50 [31]: ~10000 nM

SMILES: COC(=O)C[C@@H]1N=C(c2ccc(Cl)cc2)c2c(sc(C(=O)NCCCCCNc3ccc4c(c3)C(=O)N(C3CCC(=O)NC3=O)C4=O)c2C)-n2c(C)nnc21 (some centres not stated)
- DC50 [32]: 5 nM

SMILES: Cc1sc2c(c1C)C(c1ccc(Cl)cc1)=N[C@@H](CC(=O)NCCCCNC(=O)COc1cccc3c1C(=O)N(C1CCC(=O)NC1=O)C3=O)c1nnc(C)n1-2 (some centres not stated)
- Emax [33]: 93%
